Data taken from US4118561A, “7-(Substituted)-7H-pyrrolo[3,2-f]quinazoline-1,3-diamines” (priority 1977, dated 1978).
Converted amounts (≈) assume the structure as drawn. Like-named read-outs stand apart in the source and are kept apart here.

Key:
S. paratyphi 11737 = assay: In vitro antibacterial activity (MIC), S. paratyphi 11737; assay type: cell-based; conditions: Salmonella enterica, 18 h
S. aureus 53-180 = assay: In vitro antibacterial activity (MIC), S. aureus 53-180; conditions: Staphylococcus aureus, 53180, 18 h
[1] = Antimalarial blood schizonticidal test in mice; assay type: in vivo, Plasmodium berghei (infected ICR/HA Swiss mice); design: ΔMST (increase in mean survival time): unit: days; conditions: mouse, in vivo, sc, single dose, read-out: Highest Non-Lethal Dose
From the text: (§1) In addition, the invention provides compounds which have antimalarial activity in vivo as evidenced by a standard blood schizonticidal test in mice infected with Plasmodium berghei KBG 173.
(§2) Utilizing young ICR/HA Swiss mice and a standard inoculum of Plasmodium berghei KBG 173, it is possible to produce a uniform disease fatal to 100% of untreated animals within 6 to 8 days with a mean survival time of 6.2 days. Test animals weigh from 18 to 22 grams but weight variations in any given experimental or control group are confined to 2-3 grams. All animals in any given test are approximately of the same age. Animals on test are housed in metal-topped plastic cages, given a standard laboratory diet and water ad libitum.
(§3) Test animals receive an intraperitoneal injection of 0.5 ml. of 1:100 dilution of heparinized heart's blood with a minimum of 90% parasitized cells (4 × 10^7 cells), drawn from donor mice infected one week earlier with Plasmodium berghei. The donor strain is maintained by weekly passages in separate groups of mice inoculated with a 0.5 ml. of 1:500 dilution of heparinized heart's blood.
(§4) Test compounds are administered after dissolution or suspension in peanut oil. A single dose is given subcutaneously 72 hours after the mice are infected with Plasmodium berghei. At this time a 10-15 percent parasitemia has developed; the disease is well established but has not produced sufficient debility to alter the response of the host to toxic effects of the drug on test. Since treatment is withheld for three days to permit the infection to become well established and death occurs in untreated controls within 6-8 days, it is felt that this system presents a candidate compound with the maximum challenge. In order to check factors such as changes in the infectivity of Plasmodium berghei or in the susceptibility of the host or to detect technical errors, a group of infected animals treated with pyrimethamine at dose levels producing definite increases in survival time is included in a positive control in every experiment.
(§5) In each experiment test compounds are administered in graded dosages. […] However, if an active drug is toxic for the host, its toxicity may become a limiting factor; continued increases in dose levels also increase the toxic effects and may result in the diminution of survival times. Deaths prior to the sixth day, when untreated controls begin to die, are regarded as nonparasitic and become the basis for toxicity evaluations. […] In calculating mean survival time, toxic deaths and 60-day survivors are not included.
(§6) Compounds are considered active which produce a cure in at least one test animal or which produce significant increases in mean survival times of the treated animals as compared with the mean survival times of untreated controls, provided that no drug related deaths (toxicity) are noted at the active dose.

[2] = test system: Plasmodium berghei KBG 173; assay: Antimalarial blood schizonticidal test in mice; assay type: in vivo, Plasmodium berghei (infected ICR/HA Swiss mice); design: ΔMST (increase in mean survival time): unit: days; conditions: s.c.; for ED100 / minimal effective dose: Plasmodium berghei, sc, single dose; for ED100: read-out: Lowest Dose Curing All Mice; for minimal effective dose: read-out: Min. Curing Dose; for Cure/Treat at Min. Curing Dose: at the Min. Curing Dose
From the text: as §1, §2, §3, §4, §5, §6

E. coli 9637 = assay: In vitro antibacterial activity (MIC), E. coli 9637; conditions: Escherichia coli, 9637, 18 h
K. pneumoniae 10031 = assay: In vitro antibacterial activity (MIC), K. pneumoniae 10031; conditions: Klebsiella pneumoniae, 10031, 18 h
S. aureus Smith = assay: In vitro antibacterial activity (MIC), S. aureus Smith; conditions: Staphylococcus aureus, 18 h
N. catarrhalis 8193 = assay: In vitro antibacterial activity (MIC), N. catarrhalis 8193; conditions: 18 h
P. vulgaris 6896 = assay: In vitro antibacterial activity (MIC), P. vulgaris 6896; conditions: Proteus vulgaris, 6896, 18 h
[3] = infected mice, highest dose with no deaths for any reason
[4] = alive on day 14 considered cured, no 60-day data
[5] = 336 h, alive on day 14 considered cured, no 60-day data
[6] = alive on day 14 considered cured
[7] = dose 1.25 mg. per kg., alive on day 14 considered cured, no 60-day data

Row | SMILES | MIC (S. paratyphi 11737) | MIC (S. aureus 53-180) | MTD [1, 3] | ED100 ([2]; 1440 h, 60-day survivors) | minimal effective dose ([2]; 1440 h, 60-day survivors) | Cure/Treat at Min. Curing Dose ([2]; 60-day survivors) | ΔMST (increase in mean survival time) ([2]; dose 5 mg. per kg.) | MIC (E. coli 9637) | MIC (K. pneumoniae 10031) | MIC (S. aureus Smith) | MIC (N. catarrhalis 8193) | MIC (P. vulgaris 6896) | ΔMST (increase in mean survival time) ([2]; dose 2.5 mg. per kg.) | MTD [1, 4] | ED100 [2, 5] | minimal effective dose [2, 5] | Cure/Treat at Min. Curing Dose [2, 6] | ΔMST (increase in mean survival time) [2, 7] | ΔMST (increase in mean survival time) ([2]; dose 320 mg. per kg.)
1 | Nc1nc(N)c2c(ccc3c2ccn3Cc2cccc3cccnc23)n1 [Example 51] | 1.95 µg/mL (≈ 5.73 µM) | 0.122 µg/mL (≈ 0.358 µM) | 40 mg/kg | 20 mg/kg | 5 mg/kg | 1/5 | 6.4 | 0.244 µg/mL (≈ 0.717 µM) | 0.122 µg/mL (≈ 0.358 µM) | 0.244 µg/mL (≈ 0.717 µM) | 0.0152 µg/mL (≈ 0.0447 µM) | 7.81 µg/mL (≈ 22.9 µM) | – | – | – | – | – | – | –
2 | Nc1nc(N)c2c(ccc3c2ccn3Cc2cccc(C(F)(F)F)c2)n1 [Example 12] | 7.81 µg/mL (≈ 21.9 µM) | 0.244 µg/mL (≈ 0.683 µM) | – | – | 5 mg/kg | 1/5 | – | 0.976 µg/mL (≈ 2.73 µM) | 0.488 µg/mL (≈ 1.37 µM) | 0.488 µg/mL (≈ 1.37 µM) | 0.122 µg/mL (≈ 0.341 µM) | 62.5 µg/mL (≈ 175 µM) | 7.5 | – | – | – | – | – | –
3 | CSc1ccc(Cn2ccc3c4c(N)nc(N)nc4ccc32)cc1 [Example 31] | 3.9 µg/mL (≈ 11.6 µM) | 0.488 µg/mL (≈ 1.45 µM) | – | – | – | – | – | 0.488 µg/mL (≈ 1.45 µM) | 0.122 µg/mL (≈ 0.364 µM) | 0.976 µg/mL (≈ 2.91 µM) | 0.0152 µg/mL (≈ 0.0453 µM) | 31.3 µg/mL (≈ 93.3 µM) | – | 40 mg/kg | 20 mg/kg | 2.5 mg/kg | 4/5 | 6.2 | –
4 | Cc1ccc(C)c(Cn2c(C)cc3c4c(N)nc(N)nc4ccc32)c1 [Example 103] | > 250 µg/mL | 7.81 µg/mL (≈ 23.6 µM) | – | – | – | – | – | 250 µg/mL (≈ 754 µM) | 15.6 µg/mL (≈ 47.1 µM) | 31.3 µg/mL (≈ 94.4 µM) | 1.95 µg/mL (≈ 5.88 µM) | > 250 µg/mL | – | 80 mg/kg | 5 mg/kg | 1.25 mg/kg | 1/5 | 6.8 | –
5 | Nc1nc(N)c2c(ccc3c2ccn3Cc2ccc3c(c2)OCO3)n1 [Example 38] | 15.6 µg/mL (≈ 46.8 µM) | 1.95 µg/mL (≈ 5.85 µM) | – | – | 10 mg/kg | 2/5 | – | 7.81 µg/mL (≈ 23.4 µM) | 1.95 µg/mL (≈ 5.85 µM) | 7.81 µg/mL (≈ 23.4 µM) | 0.244 µg/mL (≈ 0.732 µM) | 31.3 µg/mL (≈ 93.9 µM) | 12.2 | – | – | – | – | – | –
6 | Nc1nc(N)c2c(ccc3c2ccn3Cc2cccc3ccccc23)n1 [Example 47] | 62.5 µg/mL (≈ 184 µM) | 0.976 µg/mL (≈ 2.88 µM) | 80 mg/kg | 20 mg/kg | 5 mg/kg | 2/5 | 9.2 | 15.6 µg/mL (≈ 46 µM) | 0.976 µg/mL (≈ 2.88 µM) | 3.9 µg/mL (≈ 11.5 µM) | 0.0019 µg/mL (≈ 0.0056 µM) | 31.3 µg/mL (≈ 92.2 µM) | – | – | – | – | – | – | –
7 | Nc1nc(N)c2c(ccc3c2ccn3Cc2ccc(Cl)cc2)n1 [Example 8] | 0.976 µg/mL (≈ 3.01 µM) | 0.244 µg/mL (≈ 0.754 µM) | 40 mg/kg | 20 mg/kg | 10 mg/kg | 2/5 | 8.1 | 0.976 µg/mL (≈ 3.01 µM) | 0.122 µg/mL (≈ 0.377 µM) | 0.976 µg/mL (≈ 3.01 µM) | 0.0038 µg/mL (≈ 0.0117 µM) | 0.976 µg/mL (≈ 3.01 µM) | – | – | – | – | – | – | –
8 | Cc1cccc(Cn2ccc3c4c(N)nc(N)nc4ccc32)c1 [Example 20] | 1.95 µg/mL (≈ 6.43 µM) | 0.488 µg/mL (≈ 1.61 µM) | 320 mg/kg | 20 mg/kg | 5 mg/kg | 4/5 | 6.9 | 0.488 µg/mL (≈ 1.61 µM) | 1.95 µg/mL (≈ 6.43 µM) | 0.976 µg/mL (≈ 3.22 µM) | 0.031 µg/mL (≈ 0.102 µM) | 1.95 µg/mL (≈ 6.43 µM) | – | – | – | – | – | – | –
9 | CC(C)CCn1ccc2c3c(N)nc(N)nc3ccc21 [Example 66, 7-(3-Methylbutyl)-7H-pyrrolo[3,2-f]quinazoline-1,3-diamine] | 3.9 µg/mL (≈ 14.5 µM) | 0.976 µg/mL (≈ 3.62 µM) | – | – | – | – | – | 0.976 µg/mL (≈ 3.62 µM) | 0.244 µg/mL (≈ 0.906 µM) | 1.95 µg/mL (≈ 7.24 µM) | 0.0038 µg/mL (≈ 0.0141 µM) | 3.9 µg/mL (≈ 14.5 µM) | – | – | – | – | – | – | 8.1
